Reference: US6984649B1, “Pyridine derivatives” (Bayer Aktiengesellschaft, priority 2000, dated 2006)
Structures can show the parent of a compound that is named as a salt.

These compounds were tested on A549 human lung epithelium cell line (assay: RANTES production in response to TNF-α from A549 cells). Details: A549 cells, 100 ng/ml TNF-α, read-out: Cellular activity grade (A549) (Cellular IC50).
Format: cell-based
How it was run: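 RANTES released into supernatant was measured by DELFIA-type sandwich immunoassay, Eu-labelled detection antibody, 340 nm excitation/615 nm emission, recombinant RANTES standard. Beforehand, cells seeded at 4×10^4/well received test compound (1% DMSO) for 1 h at 37 °C, followed by 24 h TNF-α (100 ng/ml) stimulation.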

Row | Structure (SMILES) | IC50
1 | N#Cc1c(C2CCCNC2)cc(-c2c(O)cccc2OCC2CCCO2)nc1N (stereo not shown) [Example 2-81] | < 1000 nM

Same assay, conditions: Homo sapiens, A549, A549 cells, 100 ng/ml TNF-α, read-out: Cellular activity grade (A549) (Cellular IC50)

Row | Structure (SMILES) | IC50
2 | N#Cc1cccc(COc2cccc(O)c2-c2cc(C3CCCNC3)c(C#N)c(N)n2)c1 (stereo not shown) [Example 2-15] | < 1000 nM
3 | N#Cc1ccc(COc2cccc(O)c2-c2cc(C3CCCNC3)c(C#N)c(N)n2)cc1 (stereo not shown) [Example 2-16] | < 1000 nM
4 | N#Cc1c(C2CCCNC2)cc(-c2c(O)cccc2OCc2ccccc2Cl)nc1N (stereo not shown) [Example 2-17] | 1000 to 10000 nM
5 | N#Cc1c(C2CCCNC2)cc(-c2c(O)cccc2OCc2cccc(Cl)c2)nc1N (stereo not shown) [Example 2-18] | 1000 to 10000 nM
6 | N#Cc1c(C2CCCNC2)cc(-c2c(O)cccc2OCc2ccc(Cl)cc2)nc1N (stereo not shown) [Example 2-19] | < 1000 nM
7 | N#Cc1c(C2CCCNC2)cc(-c2c(O)cccc2OCc2c(Cl)cccc2Cl)nc1N (stereo not shown) [Example 2-20] | 1000 to 10000 nM
8 | N#Cc1c(C2CCCNC2)cc(-c2c(O)cccc2OCc2ccc3ccccc3c2)nc1N (stereo not shown) [Example 2-21] | < 1000 nM
9 | N#Cc1c(C2CCCNC2)cc(-c2c(O)cccc2OCCC2CCCCC2)nc1N (stereo not shown) [Example 2-61] | < 1000 nM
10 | N#Cc1c(C2CCCNC2)cc(-c2c(O)cccc2OCC2CCC2)nc1N (stereo not shown) [Example 2-62] | < 1000 nM
11 | CC(C)CCCOc1cccc(O)c1-c1cc(C2CCCNC2)c(C#N)c(N)n1 (stereo not shown) [Example 2-63] | < 1000 nM
12 | CCCCCCCOc1cccc(O)c1-c1cc(C2CCCNC2)c(C#N)c(N)n1 (stereo not shown) [Example 2-64] | 1000 to 10000 nM
13 | N#Cc1c(C2CCCNC2)cc(-c2c(O)cccc2OCC2CC2)nc1N (stereo not shown) [Example 2-65] | < 1000 nM
14 | CC(C)CCCOc1cccc(O)c1-c1cc(C2CCNCC2)c(C#N)c(N)n1 [Example 2-66] | < 1000 nM
15 | CCCOc1cccc(O)c1-c1cc(C2CCNCC2)c(C#N)c(N)n1 [Example 2-67] | < 1000 nM
16 | N#Cc1c(C2CCNCC2)cc(-c2c(O)cccc2OCC2CCC2)nc1N [Example 2-68] | < 1000 nM
17 | CCCCCOc1cccc(O)c1-c1cc(C2CCNCC2)c(C#N)c(N)n1 [Example 2-69] | < 1000 nM
18 | N#Cc1c(C2CCNCC2)cc(-c2c(O)cccc2OCCC2CCCCC2)nc1N [Example 2-70] | < 1000 nM
19 | CC(C)COc1cccc(O)c1-c1cc(C2CCNCC2)c(C#N)c(N)n1 [Example 2-71] | < 1000 nM
20 | CCCCCCCOc1cccc(O)c1-c1cc(C2CCNCC2)c(C#N)c(N)n1 [Example 2-73] | < 1000 nM
21 | C=CCOc1cccc(O)c1-c1cc(C2CCNCC2)c(C#N)c(N)n1 [Example 2-74] | < 1000 nM
22 | CCOc1cccc(O)c1-c1cc(C2CCNCC2)c(C#N)c(N)n1 [Example 2-75] | < 1000 nM

Row | Structure (SMILES) | IC50
23 | CCCCCCOc1cccc(O)c1-c1cc(C2CCNCC2)c(C#N)c(N)n1 [Example 2-76] | < 1000 nM
24 | CC(C)(C)C(=O)COc1cccc(O)c1-c1cc(C2CCCNC2)c(C#N)c(N)n1 (stereo not shown) [Example 2-77] | < 1000 nM
25 | CC(C)(C)C(=O)COc1cccc(O)c1-c1cc(C2CCNCC2)c(C#N)c(N)n1 [Example 2-78] | < 1000 nM
26 | N#Cc1c(C2CCCNC2)cc(-c2c(O)cccc2OCC2CCCCO2)nc1N (stereo not shown) [Example 2-79] | < 1000 nM
27 | N#Cc1c(C2CCCNC2)cc(-c2c(O)cccc2OCC2CCCO2)nc1N (stereo not shown) [Example 2-80] | < 1000 nM
28 | N#Cc1c(C2CCNCC2)cc(-c2c(O)cccc2OCC2CCCO2)nc1N (stereo not shown) [Example 2-82] | < 1000 nM
29 | N#Cc1c(C2CCCNC2)cc(-c2c(O)cccc2OCCN2CCCCC2)nc1N (stereo not shown) [Example 2-83] | 1000 to 10000 nM
30 | N#Cc1c(C2CCCNC2)cc(-c2c(O)cccc2OCCN2CCOCC2)nc1N (stereo not shown) [Example 2-84] | 1000 to 10000 nM
31 | CN(C)CCOc1cccc(O)c1-c1cc(C2CCCNC2)c(C#N)c(N)n1 (stereo not shown) [Example 2-85] | 1000 to 10000 nM
32 | N#Cc1c(C2CCCNC2)cc(-c2c(O)cccc2OCCN2CCCCCC2)nc1N (stereo not shown) [Example 2-86] | 1000 to 10000 nM
33 | N#Cc1c(C2CCCNC2)cc(-c2c(O)cccc2OCCN2CCCC2)nc1N (stereo not shown) [Example 2-87] | 1000 to 10000 nM
34 | CCOC(=O)N1Cc2c(C3CCCNC3)cc(-c3c(O)cccc3OCC3CC3)nc2NC1=O (stereo not shown) [Example 24-2, ethyl 7-[2-(cyclopropylmethoxy)-6-hydroxyphenyl]-2-oxo-5-(3-piperidinyl)-1,4-dihydropyrido[2,3-d]pyrimidine-3(2H)-carboxylate hydrochloride] | < 1000 nM
35 | O=C1Nc2nc(-c3c(O)cccc3OCC3CC3)cc(C3CCCNC3)c2CN1C(=O)NC1CCCCC1 (stereo not shown) [Example 24-3, N-cyclohexyl-7-[2-(cyclopropylmethoxy)-6-hydroxyphenyl]-2-oxo-5-(3-piperidinyl)-1,4-dihydropyrido[2,3-d]pyrimidine-3(2H)-carboxamide hydrochloride] | < 1000 nM
36 | CS(=O)(=O)N1Cc2c(C3CCCNC3)cc(-c3c(O)cccc3OCC3CC3)nc2NC1=O (stereo not shown) [Example 24-4, 7-[2-(cyclopropylmethoxy)-6-hydroxyphenyl]-3-(methylsulfonyl)-5-(3-piperidinyl)-3,4-dihydropyrido[2,3-d]pyrimidin-2(1H)-one hydrochloride] | < 1000 nM
37 | CCOC(=O)c1cc2c(C3CCCNC3)cc(-c3ccccc3O)nc2[nH]c1=O (stereo not shown) [Example 25-1, ethyl 7-(2-hydroxyphenyl)-2-oxo-5-(3-piperidinyl)-1,2-dihydro-1,8-naphthyridine-3-carboxylate hydrochloride] | 1000 to 10000 nM
38 | O=c1[nH]c2nc(-c3c(O)cccc3OCC3CC3)cc(C3CCCNC3)c2cc1F (stereo not shown) [Example 25-2, 7-[2-(cyclopropylmethoxy)-6-hydroxyphenyl]-3-fluoro-5-(3-piperidinyl)-1,8-naphthyridin-2(1H)-one hydrochloride] | < 1000 nM
39 | NC(=O)c1cc2c(C3CCNCC3)cc(-c3c(O)cccc3OCC3CC3)nc2[nH]c1=O [Example 25-3, 7-[2-(cyclopropylmethoxy)-6-hydroxyphenyl]-2-oxo-5-(4-piperidinyl)-1,2-dihydro-1,8-naphthyridine-3-carboxamide hydrochloride] | 1000 to 10000 nM
40 | O=c1ccc2c(C3CCCNC3)cc(-c3c(O)cccc3OCC3CC3)nc2[nH]1 (stereo not shown) [Example 25-4, 7-[2-(cyclopropylmethoxy)-6-hydroxyphenyl]-5-(3-piperidinyl)-1,8-naphthyridin-2(1H)-one hydrochloride] | < 1000 nM
41 | CCOC(=O)C1Cc2c(C3CCCNC3)cc(-c3ccccc3O)nc2NC1=O (stereo not shown) [Example 26-1, ethyl 7-(2-hydroxyphenyl)-2-oxo-5-(3-piperidinyl)-1,2,3,4-tetrahydro-1,8-naphthyridine-3-carboxylate] | < 1000 nM
42 | NC(=O)C1Cc2c(C3CCNCC3)cc(-c3c(O)cccc3OCC3CC3)nc2NC1=O (stereo not shown) [Example 26-2, 7-[2-(cyclopropylmethoxy)-6-hydroxyphenyl]-2-oxo-5-(4-piperidinyl)-1,2,3,4-tetrahydro-1,8-naphthyridine-3-carboxamide hydrochloride] | < 1000 nM
43 | O=C1CCc2c(C3CCCNC3)cc(-c3ccccc3O)nc2N1 (stereo not shown) [Example 27-1, 7-(2-hydroxyphenyl)-5-(3-piperidinyl)-3,4-dihydro-1,8-naphthyridin-2(1H)-one hydrochloride] | < 1000 nM
